Patent US10662195B2, “Protein kinase conjugates and inhibitors” (Celgene Avilomics Research, Inc., priority 2009, dated 2020)
Like-named read-outs stand apart in the source and are kept apart here.

Legend:
[1] = molecular target: T1, FLT3 (Homo sapiens, UniProt P36888); experiment: FLT-3 Omnia continuous-read kinase assay; type: biochemical
T1 construct: purchased PV3182
T1 sequence (P36888 27-993): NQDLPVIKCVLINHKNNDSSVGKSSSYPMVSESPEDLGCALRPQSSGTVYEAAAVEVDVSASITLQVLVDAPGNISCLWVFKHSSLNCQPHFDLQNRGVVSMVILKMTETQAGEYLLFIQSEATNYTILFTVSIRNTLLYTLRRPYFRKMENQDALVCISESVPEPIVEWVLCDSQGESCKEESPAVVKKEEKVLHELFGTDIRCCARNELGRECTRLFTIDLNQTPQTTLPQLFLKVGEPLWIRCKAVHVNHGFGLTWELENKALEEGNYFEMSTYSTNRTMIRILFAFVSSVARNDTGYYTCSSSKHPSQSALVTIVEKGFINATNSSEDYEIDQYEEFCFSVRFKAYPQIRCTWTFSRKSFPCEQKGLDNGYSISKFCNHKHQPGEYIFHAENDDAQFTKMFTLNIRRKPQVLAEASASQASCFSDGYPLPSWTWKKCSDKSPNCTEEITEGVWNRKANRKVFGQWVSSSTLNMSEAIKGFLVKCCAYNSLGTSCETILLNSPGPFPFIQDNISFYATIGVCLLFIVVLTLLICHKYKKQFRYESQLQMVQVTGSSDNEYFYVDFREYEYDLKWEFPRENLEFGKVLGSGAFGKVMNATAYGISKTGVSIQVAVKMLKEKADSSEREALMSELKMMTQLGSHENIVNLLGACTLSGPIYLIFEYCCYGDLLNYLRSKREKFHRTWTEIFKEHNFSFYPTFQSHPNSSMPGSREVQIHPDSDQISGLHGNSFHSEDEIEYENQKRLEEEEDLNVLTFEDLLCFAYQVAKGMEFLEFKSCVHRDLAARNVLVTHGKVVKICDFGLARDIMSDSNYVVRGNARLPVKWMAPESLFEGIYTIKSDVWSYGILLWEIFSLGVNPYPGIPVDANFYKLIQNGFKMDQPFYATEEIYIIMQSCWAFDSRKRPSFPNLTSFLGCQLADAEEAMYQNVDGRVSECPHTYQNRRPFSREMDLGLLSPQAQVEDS
Protocol: (§1) A. KDR and FLT-3 Omnia Assay for Potency Assessment:
(§2) The protocol below describes a continuous-read kinase assay to measure inherent potency of Avila Therapeutics' compounds against active KDR and FLT-3 enzymes. The assay was performed substantially as described by the vendor (Invitrogen, Carlsbad, Calif.; http://www.invitrogen.com/content.cfm?pageid=11338.)
(§3) Briefly, 10× stocks of KDR from Invitrogen or BPS Bioscience (PV3660 or 40301) and FLT-3 (PV3182) enzymes, 1.13×ATP (AS001A) and Y9-Sox or Y12-Sox peptide substrates (KCZ1001) were prepared in 1× kinase reaction buffer consisting of 20 mM Tris, pH 7.5, 5 mM MgCl2, 1 mM EGTA, 5 mM β-glycerophosphate, 5% glycerol (10× stock, KB002A) and 0.2 mM DTT (DS001A). 5 μL of enzyme were pre-incubated in a Corning (#3574) 384-well, white, non-binding surface microtiter plate (Corning, N.Y.) for 30 min at 27° C. with a 0.5 μL volume of 50% DMSO and serially diluted compounds prepared in 50% DMSO. Kinase reactions were started with the addition of 45 μL of the ATP/Y9 or Y5-Sox peptide substrate mix and monitored every 30-90 seconds for 60 minutes at λex360/λem485 in a Synergy^4 plate reader from BioTek (Winooski, Vt.). At the conclusion of each assay, progress curves from each well were examined for linear reaction kinetics and fit statistics (R^2, 95% confidence interval, absolute sum of squares). Initial velocity (0 minutes to 20+ minutes) from each reaction was determined from the slope of a plot of relative fluorescence units vs time (minutes) and then plotted against inhibitor concentration to estimate IC50 from Log [Inhibitor] vs Response, Variable Slope model in GraphPad Prism from GraphPad Software (San Diego, Calif.).
[FLT-3]=15 nM, [ATP]=500 μM and [Y5-Sox peptide]=10 μM (ATP KMapp=470 μM)
(§4) The reported IC50_APP and IC50 values are in units of nM.

[2] = molecular target: KDR (Homo sapiens, UniProt P35968); experiment: KDR Omnia continuous-read kinase assay; type: biochemical; parameters: purchased Invitrogen or BPS Bioscience PV3660 or 40301
Sequence of KDR (P35968 20-1356): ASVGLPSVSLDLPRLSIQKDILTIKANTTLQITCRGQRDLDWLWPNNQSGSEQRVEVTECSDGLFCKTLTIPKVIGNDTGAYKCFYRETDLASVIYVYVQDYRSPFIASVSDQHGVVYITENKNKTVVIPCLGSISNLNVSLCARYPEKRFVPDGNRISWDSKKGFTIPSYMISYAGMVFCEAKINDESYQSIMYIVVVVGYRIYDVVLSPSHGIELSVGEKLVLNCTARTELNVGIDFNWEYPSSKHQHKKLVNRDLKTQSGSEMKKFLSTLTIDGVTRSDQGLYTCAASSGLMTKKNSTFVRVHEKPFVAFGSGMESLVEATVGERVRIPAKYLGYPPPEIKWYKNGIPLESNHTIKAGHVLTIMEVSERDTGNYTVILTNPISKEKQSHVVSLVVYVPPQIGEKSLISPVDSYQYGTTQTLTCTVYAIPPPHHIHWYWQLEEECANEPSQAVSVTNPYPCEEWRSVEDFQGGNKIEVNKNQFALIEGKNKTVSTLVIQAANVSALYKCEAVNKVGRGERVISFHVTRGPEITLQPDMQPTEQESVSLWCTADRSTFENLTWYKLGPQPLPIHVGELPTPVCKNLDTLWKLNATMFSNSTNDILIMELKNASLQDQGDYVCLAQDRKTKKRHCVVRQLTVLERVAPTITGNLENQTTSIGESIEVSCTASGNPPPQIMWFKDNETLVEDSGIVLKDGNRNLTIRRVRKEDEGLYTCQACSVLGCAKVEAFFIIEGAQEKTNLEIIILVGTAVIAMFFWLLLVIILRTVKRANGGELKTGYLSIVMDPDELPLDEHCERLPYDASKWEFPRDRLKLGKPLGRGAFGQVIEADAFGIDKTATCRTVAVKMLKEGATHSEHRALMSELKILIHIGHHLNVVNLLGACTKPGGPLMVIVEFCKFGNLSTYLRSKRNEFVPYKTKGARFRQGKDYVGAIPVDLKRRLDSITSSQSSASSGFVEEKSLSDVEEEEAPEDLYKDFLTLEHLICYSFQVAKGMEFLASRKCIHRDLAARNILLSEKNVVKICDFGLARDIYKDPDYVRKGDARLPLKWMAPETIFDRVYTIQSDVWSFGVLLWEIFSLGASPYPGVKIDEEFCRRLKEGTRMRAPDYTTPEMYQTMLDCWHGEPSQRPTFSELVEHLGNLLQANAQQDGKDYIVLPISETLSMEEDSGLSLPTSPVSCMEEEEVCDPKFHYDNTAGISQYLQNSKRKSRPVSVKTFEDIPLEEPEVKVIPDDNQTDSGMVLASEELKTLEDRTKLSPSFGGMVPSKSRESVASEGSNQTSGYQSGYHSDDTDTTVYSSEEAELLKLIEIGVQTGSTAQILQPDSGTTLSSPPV
Protocol: as §1, §2
as §3, with “Calif.). […]” for “Calif.).”
as §4

[3] = molecular target: BTK (Homo sapiens, UniProt Q06187); experiment: Omnia assay for potency assessment against BTK; type: biochemical
Sequence of BTK (Q06187 whole entry): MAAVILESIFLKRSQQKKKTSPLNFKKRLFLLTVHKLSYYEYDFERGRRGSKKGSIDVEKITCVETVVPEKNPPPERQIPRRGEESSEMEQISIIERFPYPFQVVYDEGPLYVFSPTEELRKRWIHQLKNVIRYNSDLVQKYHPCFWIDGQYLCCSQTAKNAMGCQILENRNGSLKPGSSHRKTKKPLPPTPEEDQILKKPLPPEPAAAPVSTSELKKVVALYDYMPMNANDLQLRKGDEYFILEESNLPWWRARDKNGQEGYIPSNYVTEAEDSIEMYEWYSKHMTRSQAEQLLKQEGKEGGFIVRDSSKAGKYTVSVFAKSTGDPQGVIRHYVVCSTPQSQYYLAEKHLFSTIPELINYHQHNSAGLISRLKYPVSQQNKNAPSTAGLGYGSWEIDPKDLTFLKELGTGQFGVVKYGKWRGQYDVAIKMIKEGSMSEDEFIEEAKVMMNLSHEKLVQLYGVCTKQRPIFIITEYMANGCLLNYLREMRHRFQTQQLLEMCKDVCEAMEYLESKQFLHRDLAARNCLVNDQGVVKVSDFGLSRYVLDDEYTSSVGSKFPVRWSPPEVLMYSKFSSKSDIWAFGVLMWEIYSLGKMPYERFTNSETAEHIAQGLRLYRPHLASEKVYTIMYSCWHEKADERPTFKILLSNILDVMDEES
Source text: B. Omnia Assay Protocol for Potency Assessment Against BTK
Below describes the protocol using EGFR-WT and EGFR-T790M/L858R and the protocol BTK-optimized reagent conditions then follow.
The mechanics of the assay platform are best described by the vendor (Invitrogen, Carlsbad, Calif.) on their website at the following URL: http://www.invitrogen.com/content.cfm?pageid=11338 or http://www.invitrogen.com/site/us/en/home/Products-and-Services/Applications/Drug-Discovery/Target-and-Lead-Identification-and-Validation/KinaseBiology/KB-Misc/Biochemical-Assays/Omnia-Kinase-Assays.html.
Briefly, 10× stocks of EGFR-WT (PV3872) from Invitrogen and EGFR-T790M/L858R (40350) from BPS Bioscience, San Diego, Calif., 1.13×ATP (AS001A) and appropriate Tyr-Sox conjugated peptide substrates (KCZ1001) were prepared in 1× kinase reaction buffer consisting of 20 mM Tris, pH 7.5, 5 mM MgCl2, 1 mM EGTA, 5 mM β-glycerophosphate, 5% glycerol (10× stock, KB002A) and 0.2 mM DTT (DS001A). 5 μL of each enzyme were pre-incubated in a Corning (#3574) 384-well, white, non-binding surface microtiter plate (Corning, N.Y.) for 30 min. at 27° C. with a 0.5 μL volume of 50% DMSO and serially diluted compounds prepared in 50% DMSO. Kinase reactions were started with the addition of 45 μL of the ATP/Tyr-Sox peptide substrate mix and monitored every 30-90 seconds for 60 minutes at λex360/λem485 in a Synergy^4 plate reader from BioTek (Winooski, Vt.). At the conclusion of each assay, progress curves from each well were examined for linear reaction kinetics and fit statistics (R^2, 95% confidence interval, absolute sum of squares). Initial velocity (0 minutes to ˜30 minutes) from each reaction was determined from the slope of a plot of relative fluorescence units vs time (minutes) and then plotted against inhibitor concentration to estimate IC50 from log [Inhibitor] vs Response, Variable Slope model in GraphPad Prism from GraphPad Software (San Diego, Calif.).
The modified BTK-optimized reagent conditions for the above protocol are:
[BTK]=5 nM, [ATP]=[…], [Y5-Sox]=[…] (ATP KMapp˜[…]).
as §4

[4] = molecular target: CKIT (Homo sapiens, UniProt P10721); experiment: c-Kit Omnia kinase assay; type: biochemical; details: read-out: IC50_APP CKIT
Sequence of CKIT (P10721 26-976): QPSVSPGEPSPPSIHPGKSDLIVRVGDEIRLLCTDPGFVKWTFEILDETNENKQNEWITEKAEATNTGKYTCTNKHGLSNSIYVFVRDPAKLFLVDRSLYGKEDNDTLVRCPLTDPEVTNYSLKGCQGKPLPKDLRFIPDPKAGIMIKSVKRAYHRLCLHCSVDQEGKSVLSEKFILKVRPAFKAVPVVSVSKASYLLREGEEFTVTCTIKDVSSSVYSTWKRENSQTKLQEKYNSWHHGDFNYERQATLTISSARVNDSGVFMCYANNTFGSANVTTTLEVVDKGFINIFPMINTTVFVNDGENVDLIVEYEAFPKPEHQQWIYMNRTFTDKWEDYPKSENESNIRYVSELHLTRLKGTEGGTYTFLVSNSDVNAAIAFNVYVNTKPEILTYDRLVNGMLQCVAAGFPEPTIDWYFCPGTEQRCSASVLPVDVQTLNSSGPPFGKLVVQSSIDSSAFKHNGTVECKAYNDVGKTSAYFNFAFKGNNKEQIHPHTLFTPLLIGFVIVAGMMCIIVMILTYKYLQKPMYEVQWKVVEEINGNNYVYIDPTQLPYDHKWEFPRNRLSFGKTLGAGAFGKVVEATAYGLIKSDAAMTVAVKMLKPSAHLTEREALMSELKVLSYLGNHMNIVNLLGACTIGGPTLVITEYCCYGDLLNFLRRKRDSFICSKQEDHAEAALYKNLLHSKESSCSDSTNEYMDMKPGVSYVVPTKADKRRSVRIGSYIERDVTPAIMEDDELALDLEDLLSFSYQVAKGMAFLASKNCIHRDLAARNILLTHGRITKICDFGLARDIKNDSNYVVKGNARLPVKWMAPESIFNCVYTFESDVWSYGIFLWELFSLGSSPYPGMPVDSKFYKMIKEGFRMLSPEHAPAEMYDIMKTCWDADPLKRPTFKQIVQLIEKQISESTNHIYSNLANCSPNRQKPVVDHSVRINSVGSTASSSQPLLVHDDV

[5] = molecular target: CKIT D816V (Homo sapiens, UniProt P10721, D816V); experiment: c-Kit mutant Omnia kinase assay; type: biochemical; details: read-out: IC50_APP CKIT D816V
Sequence of CKIT D816V (P10721 26-976 D816V): as the sequence (P10721 26-976) above, with D791V counted along it

[6] = molecular target: FAK (PTK2) (Homo sapiens, UniProt Q05397); experiment: Mass spectral analysis of intact FAK after incubation with compound; type: binding; details: 1 hr, 10× excess of compound to protein, intact protein MALDI
Sequence of FAK (PTK2) (Q05397 whole entry): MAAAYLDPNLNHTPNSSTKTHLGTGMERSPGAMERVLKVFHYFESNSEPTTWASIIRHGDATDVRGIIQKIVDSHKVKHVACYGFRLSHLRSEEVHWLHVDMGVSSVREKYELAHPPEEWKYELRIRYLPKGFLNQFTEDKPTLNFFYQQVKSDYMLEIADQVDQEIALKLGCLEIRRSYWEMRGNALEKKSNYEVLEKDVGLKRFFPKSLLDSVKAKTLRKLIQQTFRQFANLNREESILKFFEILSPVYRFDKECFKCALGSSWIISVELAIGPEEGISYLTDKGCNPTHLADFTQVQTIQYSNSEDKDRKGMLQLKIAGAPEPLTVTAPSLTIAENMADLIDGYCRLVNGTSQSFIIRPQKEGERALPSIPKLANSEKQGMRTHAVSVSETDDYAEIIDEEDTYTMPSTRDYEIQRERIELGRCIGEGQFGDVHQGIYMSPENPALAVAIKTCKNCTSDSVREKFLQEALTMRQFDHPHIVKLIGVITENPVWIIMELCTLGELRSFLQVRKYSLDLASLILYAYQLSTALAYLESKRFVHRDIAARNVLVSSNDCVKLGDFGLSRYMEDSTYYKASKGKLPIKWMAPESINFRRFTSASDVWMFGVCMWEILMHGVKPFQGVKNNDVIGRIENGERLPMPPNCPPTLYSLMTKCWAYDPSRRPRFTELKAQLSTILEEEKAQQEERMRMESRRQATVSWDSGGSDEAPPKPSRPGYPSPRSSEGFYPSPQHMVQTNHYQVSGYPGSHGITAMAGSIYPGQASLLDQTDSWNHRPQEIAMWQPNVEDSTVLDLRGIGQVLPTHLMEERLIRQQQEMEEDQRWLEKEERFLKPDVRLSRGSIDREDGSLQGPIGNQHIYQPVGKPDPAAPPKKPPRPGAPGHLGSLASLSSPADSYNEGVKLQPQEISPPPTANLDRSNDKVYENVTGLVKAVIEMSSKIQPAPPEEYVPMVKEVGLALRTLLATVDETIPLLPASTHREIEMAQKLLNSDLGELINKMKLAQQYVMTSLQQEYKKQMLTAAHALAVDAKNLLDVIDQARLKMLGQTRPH
Protocol: Intact FAK (PTK2) was incubated for 1 hr at a 10× fold access of compound IV-29 to protein. 3 ul aliquots of the samples were diluted with 10 ul of 0.1% TFA prior to micro C4 ZipTipping directly onto the MALDI target using Sinapinic acid as the desorption matrix (10 mg/ml in 0.1% TFA:Acetonitrile 50:50). Mass spec analysis was run on intact FAK (PTK2) protein (m/z 146,672 Da), and on FAK that was incubated with compound IV-29 (mw=669.2).

[7] = 30 min pre-incubation, [ATP]=500 μM, read-out: IC50_APP FLT3
[8] = 30 min pre-incubation, read-out: IC50_APP KDR
[9] = 30 min pre-incubation, read-out: IC50_APP BTK
[10] = reversible reference compounds, read-out: IC50 KDR
[11] = reversible reference compounds, read-out: IC50 BTK

Question: Which results are given for `C=CC(=O)Nc1ccc(Sc2nc(Nc3ncc(C#N)s3)cc(N3CCN(C)CC3)n2)cc1` [II-1, N-(4-(4-(5-Cyanothiazol-2-ylamino)-6-(4-methylpiperazin-1-yl)pyrimidin-2-ylthio)phenyl)acrylamide]?
Answer: IC50 [1, 7]: 3.15 nM; IC50 [2, 8]: 39.3 nM; IC50 [3, 9]: 6170 nM

Question: For `CC#CC(=O)N1CCC(Sc2nc(Nc3ncc(C#N)s3)cc(N3CCN(C)CC3)n2)CC1` [II-3], which IC50 [2, 8] is on record?
Answer: 290 nM

Question: And the IC50 [3, 9]?
Answer: 459 nM

Question: With `C=CC(=O)NCCSc1nc(Nc2ncc(C#N)s2)cc(N2CCN(C)CC2)n1` [II-4, N-(2-(4-(5-cyanothiazol-2-ylamino)-6-(4-methylpiperazin-1-yl)pyrimidin-2-ylthio)ethyl)acrylamide] as the compound, how does the IC50 [2, 8] read?
Answer: 111 nM

Question: And the IC50 [3, 9]?
Answer: 5080 nM

Question: Which IC50 [2, 8] does the source give for `CN(C)C/C=C/C(=O)N1CCC(Sc2nc(Nc3ncc(C#N)s3)cc(N3CCN(C)CC3)n2)CC1` [II-5] here?
Answer: 39.7 nM

Question: And the IC50 [3, 9]?
Answer: 106 nM

Question: For `C=CC(=O)Nc1ccc(Sc2nc(Nc3cc(C)n[nH]3)cc(N3CCN(C)CC3)n2)cc1` [II-53, N-(4-(4-(3-Methyl-1H-pyrazol-5-ylamino)-6-(4-methylpiperiazin-1-yl)pyrimidin-2ylthio)phenyl)acrylamide], which IC50 [4] is on record?
Answer: 114 nM

Question: And the IC50 [5]?
Answer: 127 nM

Question: What about the IC50 [1, 7] of the same compound?
Answer: 3.76 nM

Question: And the IC50 [2, 8]?
Answer: 15.2 nM

Question: `C=CC(=O)Nc1ccc(S(=O)(=O)N2CCN(c3ccc(Nc4ncc(Cl)c(Nc5ccccc5C(=O)NC)n4)c(OC)c3)CC2)cc1` [IV-31, 2-(2-{4-[4-(4-Acryloylamino-benzenesulfonyl)-piperazin-1-yl]-2-methoxy-phenylamino}-5-chloro-pyrimidin-4-ylamino)-N-methyl-benzamide] was tested. Which “modification of FAK (PTK2) by compound, mass spec” value [6] did it give?
Answer: partial modification of FAK

Question: What does the source list for `CCC(=O)Nc1ccc(Sc2nc(Nc3ncc(C#N)s3)cc(N3CCN(C)CC3)n2)cc1` [Reversible Reference Compound 1, N-(4-(4-(5-Cyanothiazol-2-ylamino)-6-(4-methylpiperazin-1-yl)pyrimidin-2-ylthio)phenyl)propionamide, reference compound]?
Answer: IC50 ([1]; reversible reference compounds, read-out: IC50 FLT3): 5.84 nM; IC50 [2, 10]: 254 nM; IC50 [3, 11]: 1640 nM

Question: For `CCC(=O)N1CCC(Sc2nc(Nc3ncc(C#N)s3)cc(N3CCN(C)CC3)n2)CC1` [Reversible Reference Compound 2, 2-(2-(1-Propionylpiperidin-4-ylthio)-6-(4-methylpiperazin-1-yl)pyrimidin-4-ylamino)thiazole-5-carbonitrile, reference compound], which IC50 [2, 10] is on record?
Answer: 95.7 nM

Question: And the IC50 [3, 11]?
Answer: 184 nM

Question: Which IC50 [4] does the source give for `CNC(=O)c1cc(Oc2ccc(NC(=O)Nc3ccc(NC(=O)/C=C/CN(C)C)c(C(F)(F)F)c3)cc2)ccn1` [XVIII-12] here?
Answer: 10.4 nM

Question: What about the IC50 [5] of the same compound?
Answer: 2.5 nM

Question: What about the IC50 [1, 7] of the same compound?
Answer: 1.07 nM

Question: What about the IC50 [2, 8] of the same compound?
Answer: 148 nM

Question: Which IC50 [2, 8] does the source give for `C=CC(=O)Nc1cc(NC(=O)Nc2ccc(Oc3ccnc(C(=O)NC)c3)cc2)ccc1Cl` [XVIII-15] here?
Answer: 462 nM

Question: Which IC50 [2, 8] does the source give for `C=CC(=O)N(C)c1ccc(NC(=O)Nc2ccc(Oc3ccnc(C(=O)NC)c3)cc2)cc1` [XVIII-16, 4-(4-(3-(4-(N-methylacrylamido)phenyl)ureido)phenoxy)-N-methylpicolinamide] here?
Answer: 1340 nM
